In US20230203060A1 (GENFLEET THERAPEUTICS (SHANGHAI) INC., priority 2020, published 2023):
pIC50: −log10 of the molar value. Where a name gives a salt, the structure may show the parent alone.

Key:
[1] = tested on: phosphorylated ERK downstream of KRAS G12C in MIA PaCa2 cells; test: Cell p-ERK detection experiment (HTRF) in MIA PaCa2; type: cell-based, human; conditions: Homo sapiens, MIA PaCa-2, 2 h, MIA PaCa2 cells, 2 hours with compound, Advance ERK phospho-T202/Y204 HTRF kit; read-out: p-ERK IC50
Outline: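 KRAS G12C-mutant MIA PaCa2 cells (2.5E4 per well, overnight) exposed 2 h to a 3.16-fold compound dilution series at 0.1% DMSO. Lysates probed 4 h with HTRF antibodies to ERK phospho-T202/Y204; inhibition versus DMSO control and blank, IC50 by four-parameter fit.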

[2] = tested on: KRAS G12C mutant MIA PaCa-2 cells; test: Cell proliferation inhibition experiment, 3D spheroid, CellTiter-Glo, MIA PaCa-2; type: cell-based, human; conditions: Homo sapiens, MIA PaCa-2, 120 h, 3D cell model in 384-well spheroid plate, 5 days, CellTiter-Glo; read-out: MIA-PaCa2 IC50
Outline: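 200 MIA PaCa-2 cells/well grown overnight as 3D spheroids, then exposed to 3.16-fold compound dilutions (0.1% DMSO final) for 5 days. Viability read by CellTiter-Glo luminescence; inhibition calculated against DMSO and medium-only controls, and IC50 fitted by four-parameter model.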

SMILES | pIC50 [1] | pIC50 [2]
C=CC(=O)N1CCN2C(=O)c3c(N4Cc5cn(C)nc5[C@H]4C)nc(-c4c(O)cccc4F)c(Cl)c3OC[C@H]2C1 (single isomer, unassigned) [Z291-1S, trifluoroacetate] | 7.05 | 7.51
C=CC(=O)N1CCN2C(=O)c3c(N4CC(C#N)CC4(C)C)nc(-c4c(O)cccc4F)c(F)c3OC[C@H]2C1 (stereo partly drawn) [Z335] | 6.89 | 7.74
C=CC(=O)N1CCN2C(=O)c3c(N4Cc5cn(C)nc5C4(C)C)nc(-c4c(O)cccc4F)c(Cl)c3OC[C@H]2C1 [Z310, (6aR)-8-acryloyl-1-(2,6,6-trimethylpyrrolo[3,4-c]pyrazol-5(2H,4H,6H)-yl)-4-chloro-3-(2-fluoro-6-hydroxyphenyl)-6,6a,7,8,9,10-hexahydro-12H-pyrazino[2,1-c]pyrido[3,4-f][1,4]oxazepin-12-one] | 6.98 | 7.59
C=CC(=O)N1CCN2C(=O)c3c(N4C[C@H](N(C)C)CC4(C)C)nc(-c4c(O)cccc4F)c(Cl)c3OC[C@H]2C1 (single isomer, unassigned) [Z324-2] | 7.47 | 8.21
C=CC(=O)N1CCN2C(=O)c3c(N4CC[C@H](OC)C4(C)C)nc(-c4c(O)cccc4F)c(Cl)c3OC[C@H]2C1 (single isomer, unassigned) [Z241a-1] | 7.48 | 8.37
C=CC(=O)N1CCN2C(=O)c3c(N4CCN(C)C[C@@H]4C)nc(-c4c(F)ccc(F)c4O)c(Cl)c3OC[C@H]2C1 [Z356, (6aR)-8-acryloyl-4-chloro-3-(3,6-difluoro-2-hydroxyphenyl)-1-((S)-2,4-dimethylpiperazin-1-yl)-6,6a,7,8,9,10-hexahydro-12H-pyrazino[2,1-c]pyrido[3,4-f][1,4]oxazepin-12-one] | 6.60 | 7.54
C=CC(=O)N1CCN2C(=O)c3c(N4Cc5cn(C)nc5C4C)nc(-c4c(O)cccc4F)c(Cl)c3OC[C@H]2C1 (stereo partly drawn) [Z291-2] | 7.62 | 8.15
C=CC(=O)N1CCN2C(=O)c3c(N4C[C@@H](N(C)C)CC4(C)C)nc(-c4c(O)cccc4F)c(Cl)c3OC[C@H]2C1 (single isomer, unassigned) [Z324-1] | 7.82 | 8.62
C=CC(=O)N1CCN2C(=O)c3c(N4CCN(C)C[C@@H]4C)nc(-c4c(O)ccc(Cl)c4F)c(Cl)c3OC[C@H]2C1 [Z343, (6aR)-8-acryloyl-4-chloro-3-(3-chloro-2-fluoro-6-hydroxyphenyl)-1-((S)-2,4-dimethylpiperazin-1-yl)-6,6a,7,8,9,10-hexahydro-12H-pyrazino[2,1-c]pyrido[3,4-f][1,4]oxazepin-12-one] | 6.92 | 7.74
C=CC(=O)N1CCN2C(=O)c3c(N4C[C@H](CO)CC4(C)C)nc(-c4c(O)cccc4F)c(Cl)c3OC[C@H]2C1 (single isomer, unassigned) [Z240-2] | 7.70 | 8.48
C=CC(=O)N1CCN2C(=O)c3c(N4CCN(C(C)=O)C[C@@H]4C)nc(-c4c(O)cccc4F)c(Cl)c3OC[C@H]2C1 [Z313-1] | 7.64 | 8.59
C=CC(=O)N1CCN2C(=O)c3c(N4CC(OC)CC4(C)C)nc(-c4c(O)cccc4F)c(Cl)c3OC[C@H]2C1 (stereo partly drawn) [Z244, (6aR)-8-acryloyl-4-chloro-3-(2-fluoro-6-hydroxyphenyl)-1-(4-methoxy-2,2-dimethylpyrrolidin-1-yl)-12-oxo-6,6a,7,8,9,10-hexahydro-12H-pyrazino[2,1-c]pyrido[3,4-f][1,4]oxazepin-12-one] | 7.72 | 8.15
